Experimental data as given in patent US10570184B2, “GLP-1/glucagon receptor co-agonists for medical use” (Novo Nordisk A/S, priority 2014, dated 2020).
Starred links: 1 amine or outer side, 2 acyl side, 3 side chain; linkers in the order of their positions; H or OH if unused. Non-standard residues stand in square brackets, D forms with d. Residues, ends and D or L forms follow the SMILES beside them. Groups on a side chain read outwards from the residue. *: point of attachment. C18 diacid = O=C(O)CCCCCCCCCCCCCCCCC(=O)*; γGlu = O=C(O)[C@H](CCC(=O)[*:2])N[*:1]; Ac4c = NC1(C(=O)O)CCC1; AEEA = NCCOCCOCC(=O)O; Aib = CC(C)(N)C(=O)O

Columns and labels:
human GLP-1 receptor [1] = biological target: T1, human GLP-1 receptor (Homo sapiens, UniProt P43220); test: Assay (II)(a) GLP-1 receptor binding, 125I-GLP-1 displacement SPA on BHK membranes; conditions: without presence of serum albumin; read-out: GLP-1R IC50 (nM) [Assay (II)(a)]
T1 construct: expressed in transfected cells; host or cells: membranes of BHK cells (parent BHKTS13), clone FCW467-12A
T1 sequence (P43220 24-463): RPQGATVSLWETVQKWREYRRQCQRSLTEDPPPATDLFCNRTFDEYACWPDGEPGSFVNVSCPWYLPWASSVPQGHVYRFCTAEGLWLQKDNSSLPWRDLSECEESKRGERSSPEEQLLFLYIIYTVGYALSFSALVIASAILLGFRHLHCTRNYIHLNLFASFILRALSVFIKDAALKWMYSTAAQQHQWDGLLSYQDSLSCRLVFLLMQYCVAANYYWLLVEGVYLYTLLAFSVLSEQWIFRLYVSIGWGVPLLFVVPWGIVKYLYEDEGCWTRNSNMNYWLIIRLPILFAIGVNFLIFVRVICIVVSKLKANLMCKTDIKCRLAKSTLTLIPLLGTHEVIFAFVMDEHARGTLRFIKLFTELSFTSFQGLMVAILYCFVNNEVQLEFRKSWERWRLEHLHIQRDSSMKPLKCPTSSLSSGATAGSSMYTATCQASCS
How it was run: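 Membranes from BHK cells (clone FCW467-12A) stably expressing human GLP-1R were incubated with serially diluted compounds (8×10EE-13 to 8×10EE-7 M before addition) and [125I]-GLP-1-(7-36)NH2 with WGA SPA beads, 2 h at 30° C, pH 7.4. IC50 taken from displacement by non-linear regression. Run at ≤0.001% or 2.0% final serum albumin.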

human GLP-1 receptor [2] = biological target: T1, human GLP-1 receptor; test: Assay (I)(a) GLP-1 receptor activation, CRE luciferase reporter gene assay in BHK cells; type: cell-based; conditions: without presence of serum albumin; read-out: GLP-1R EC50 (pM) [Assay (I)(a)]
Procedure: The purpose of this example was to test the activity or potency, of the glucagon derivatives of the invention, in vitro. The in vitro potency is the measure of human GLP-1 receptor (GLP-1R) or glucagon receptor (glucagonR) activation, respectively, in a whole cell assay. In vitro potency was determined by measuring the response of human GLP-1 or glucagon receptor, respectively, in a reporter gene assay. The assay was performed in a stably transfected BHK cell line that expresses either the human GLP-1 receptor or the human glucagon receptor and contains the DNA for the cAMP response element (CRE) coupled to a promoter and the gene for firefly luciferase (CRE luciferase). […] When assay incubation was completed, the luciferase substrate (luciferin) was added and the enzyme converted luciferin to oxyluciferin and produces bioluminescence. The luminescence was measured as the readout for the assay. The cells used in this assay (clone FCW467-12A/KZ10-1) were BHK cells with BHKTS13 as a parent cell line. The cells were derived from a clone (FCW467-12A) that expresses the human GLP-1 receptor and were established by further transfection with CRE luciferase to obtain the current clone. The cells were cultured at 5% CO2 in DMEM medium with 10% FBS, 1×GlutaMAX, 1 mg/ml G418, 240 nM MTX (methotrexate) and 1% pen/strep (penicillin/streptomycin). They were aliquoted and stored in liquid nitrogen. Before each assay, an aliquot was taken up and washed three times in PBS before being suspended at the desired concentration in assay medium. For 96-well plates the suspension was made to give a final concentration of 5×10EE3 cells/well. The following chemicals were used in the assay: Pluronic F-68 (10%) (Gibco 2404), ovalbumin (Sigma A5503), DMEM w/o phenol red (Gibco 11880-028), 1 M Hepes (Gibco 15630), Glutamax 100× (Gibco 35050) and steadylite plus (PerkinElmer 6016757). Assay Medium consisted of DMEM w/o phenol red, 10 mM Hepes, 1× GlutaMAX, 2% Ovalbumin and 0.2% Pluronic F-68. Cell stocks were thawed in a 37° C. water bath. Cells were washed three times in PBS. The cells were counted and adjusted to 5×10EE3 cells/50 μl (1×10EE5 cells/ml) in Assay Medium. A 50 μl aliquot of cells was transferred to each well in the assay plate. Stocks of the test compounds and reference compounds were diluted to a concentration of […] in Assay Medium. Compounds were diluted 10-fold to give the following concentrations: 2×10EE-6 M, 2×10EE-7 M, 2×10EE-8 M; 2×10EE-9 M, 2×10EE-10 M, 2×10EE-11 M, 2×10EE-12 M and 2×10EE-13 M. For each compound a blank assay medium control was also included. A 50 μl aliquot of compound or blank was transferred from the dilution plate to the assay plate. Compounds were tested at the following final concentrations: 1×10EE-6 M, 1×10EE-7 M, 1×10EE-8 M; 1×10EE-9 M, 1×10EE-10 M, 1×10EE-11 M and 1×10EE-12 M and 1×10EE-13 M. The assay plate was incubated for 3 h in a 5% CO2 incubator at 37° C. The assay plate was removed from the incubator and allowed to stand at room temperature for 15 min. A 100 μl aliquot of steadylite plus reagent was added to each well of the assay plate (reagent is light sensitive). Each assay plate was covered with aluminum foil to protect it from light and shaken for 30 min at room temperature. Each assay plate was read in a Perkin Elmer TopCount NXT instrument. The data from the TopCount instrument was transferred to GraphPad Prism software. The software performed a non-linear regression (log(agonist) vs response-Variable slope (four parameter)). EC50 values were calculated by the software and reported in pM.

IC50 (human GLP-1 receptor [1]) [nM] | EC50 (human GLP-1 receptor [2]) [pM] | SMILES
0.3 | 2 | CC[C@H](C)[C@H](NC(=O)[C@H](CC(C)C)NC(=O)[C@H](Cc1c[nH]c2ccccc12)NC(=O)[C@H](CCCCNC(=O)COCCOCCNC(=O)COCCOCCNC(=O)CC[C@H](NC(=O)CC[C@H](NC(=O)CC[C@H](NC(=O)CCCCCCCCCCCCCCCCC(=O)O)C(=O)O)C(=O)O)C(=O)O)NC(=O)[C@@H](NC(=O)[C@H](Cc1ccccc1)NC(=O)[C@H](CCC(=O)O)NC(=O)[C@H](CCCNC(=N)N)NC(=O)[C@H](C)NC(=O)[C@H](CCCNC(=N)N)NC(=O)[C@H](CCCCN)NC(=O)[C@H](C)NC(=O)[C@H](CC(=O)O)NC(=O)[C@H](CC(C)C)NC(=O)[C@H](Cc1ccc(O)cc1)NC(=O)[C@H](CCCCN)NC(=O)[C@H](CO)NC(=O)[C@H](Cc1ccc(O)cc1)NC(=O)[C@H](CC(=O)O)NC(=O)[C@H](CO)NC(=O)[C@@H](NC(=O)[C@H](Cc1ccccc1)NC(=O)[C@@H](NC(=O)CNC(=O)[C@H](CCC(N)=O)NC(=O)C(C)(C)NC(=O)[C@@H](N)Cc1c[nH]cn1)[C@@H](C)O)[C@@H](C)O)C(C)C)C(=O)N[C@@H](CO)C(=O)N[C@H](C(N)=O)[C@@H](C)O [Chem. 2, N^ε24-[2-[2-[2-[[2-[2-[2-[[(4S)-4-carboxy-4-[[(4S)-4-carboxy-4-[[(4S)-4-carboxy-4-(17-carboxyheptadecanoylamino)butanoyl]amino]butanoyl]amino]butanoyl]amino]ethoxy]ethoxy]acetyl]amino]ethoxy]ethoxy]acetyl]-[Aib2,Ala16,Lys17,Arg20,Glu21,Lys24,Ile27,Ser28]-Glucagon amide] (H-H[Aib]QGTFTSDYSKYLDAKRAREFVK([AEEA-AEEA-γGlu-γGlu-γGlu-C18 diacid])WLIST-NH2; N-terminus assumed)
0.1 | 2 | CC[C@H](C)[C@H](NC(=O)[C@H](CC(C)C)NC(=O)[C@H](Cc1c[nH]c2ccccc12)NC(=O)[C@H](CCC(N)=O)NC(=O)[C@@H](NC(=O)[C@H](Cc1ccccc1)NC(=O)[C@H](CC(=O)O)NC(=O)[C@H](CCCNC(=N)N)NC(=O)[C@H](C)NC(=O)[C@H](CCCNC(=N)N)NC(=O)[C@H](CCCNC(=N)N)NC(=O)[C@H](CO)NC(=O)[C@H](CCC(=O)O)NC(=O)[C@H](CC(C)C)NC(=O)[C@H](Cc1ccc(O)cc1)NC(=O)[C@H](CCCCN)NC(=O)[C@H](CO)NC(=O)[C@H](CC(C)C)NC(=O)[C@H](CC(=O)O)NC(=O)[C@H](CO)NC(=O)[C@@H](NC(=O)[C@H](Cc1ccccc1)NC(=O)[C@@H](NC(=O)CNC(=O)[C@H](CCC(N)=O)NC(=O)C(C)(C)NC(=O)[C@@H](N)Cc1c[nH]cn1)[C@@H](C)O)[C@@H](C)O)C(C)C)C(=O)N[C@@H](CCCCNC(=O)COCCOCCNC(=O)COCCOCCNC(=O)CC[C@H](NC(=O)CC[C@H](NC(=O)CC[C@H](NC(=O)CCCCCCCCCCCCCCCCC(=O)O)C(=O)O)C(=O)O)C(=O)O)C(=O)N[C@H](C(N)=O)[C@@H](C)O [Chem. 3, N^ε28-[2-[2-[2-[[2-[2-[2-[[(4S)-4-carboxy-4-[[(4S)-4-carboxy-4-[[(4S)-4-carboxy-4-(17-carboxyheptadecanoylamino)butanoyl]amino]butanoyl]amino]butanoyl]amino]ethoxy]ethoxy]acetyl]amino]ethoxy]ethoxy]acetyl]-[Aib2,Leu10,Glu15,Arg20,Ile27,Lys28]-Glucagon amide] (H-H[Aib]QGTFTSDLSKYLESRRARDFVQWLIK([AEEA-AEEA-γGlu-γGlu-γGlu-C18 diacid])T-NH2; N-terminus assumed)
0.1 | 4 | CC[C@H](C)[C@H](NC(=O)[C@H](CC(C)C)NC(=O)[C@H](Cc1c[nH]c2ccccc12)NC(=O)[C@H](CCC(N)=O)NC(=O)[C@@H](NC(=O)[C@H](Cc1ccccc1)NC(=O)[C@H](CCC(=O)O)NC(=O)[C@H](CCCNC(=N)N)NC(=O)[C@H](C)NC(=O)[C@H](CCCNC(=N)N)NC(=O)[C@H](CCCNC(=N)N)NC(=O)[C@H](CO)NC(=O)[C@H](CCC(=O)O)NC(=O)[C@H](CC(C)C)NC(=O)[C@H](Cc1ccc(O)cc1)NC(=O)[C@H](CCCCN)NC(=O)[C@H](CO)NC(=O)[C@H](CC(C)C)NC(=O)[C@H](CC(=O)O)NC(=O)[C@H](CO)NC(=O)[C@@H](NC(=O)[C@H](Cc1ccccc1)NC(=O)[C@@H](NC(=O)CNC(=O)[C@H](CCC(N)=O)NC(=O)C1(NC(=O)[C@@H](N)Cc2c[nH]cn2)CCC1)[C@@H](C)O)[C@@H](C)O)C(C)C)C(=O)N[C@@H](CCCCNC(=O)CC[C@H](NC(=O)CC[C@H](NC(=O)COCCOCCNC(=O)COCCOCCNC(=O)CC[C@H](NC(=O)CC[C@H](NC(=O)CCCCCCCCCCCCCCCCC(=O)O)C(=O)O)C(=O)O)C(=O)O)C(=O)O)C(=O)N[C@H](C(N)=O)[C@@H](C)O [Chem. 13, N^ε28-[(4S)-4-carboxy-4-[[(4S)-4-carboxy-4-[[2-[2 [2-[[2-[2-[2-[[(4S)-4-carboxy-4-[[(4S)-4-carboxy-4-(17-carboxyheptadecanoylamino)butanoyl]amino]butanoyl]amino]ethoxy]ethoxy]acetyl]amino]ethoxy]ethoxy]acetyl]amino]butanoyl]amino]butanoyl]-[Acb2,Leu10,Glu15,Arg20,Glu21,Ile27,Lys28]-Glucagon amide] (H-H[Ac4c]QGTFTSDLSKYLESRRAREFVQWLIK([γGlu-γGlu-AEEA-AEEA-γGlu-γGlu-C18 diacid])T-NH2)
0.1 | 3 | CC[C@H](C)[C@H](NC(=O)[C@H](CC(C)C)NC(=O)[C@H](Cc1c[nH]c2ccccc12)NC(=O)[C@H](CCC(N)=O)NC(=O)[C@@H](NC(=O)[C@H](Cc1ccccc1)NC(=O)[C@H](CC(=O)O)NC(=O)[C@H](CCC(N)=O)NC(=O)[C@H](C)NC(=O)[C@H](CCCNC(=N)N)NC(=O)[C@H](CCCNC(=N)N)NC(=O)[C@H](CO)NC(=O)[C@H](CCC(=O)O)NC(=O)[C@H](CC(C)C)NC(=O)[C@H](Cc1ccc(O)cc1)NC(=O)[C@H](CCCCN)NC(=O)[C@H](CO)NC(=O)[C@@H](NC(=O)[C@H](CC(=O)O)NC(=O)[C@H](CO)NC(=O)[C@@H](NC(=O)[C@H](Cc1ccccc1)NC(=O)[C@@H](NC(=O)CNC(=O)[C@H](CCC(N)=O)NC(=O)C(C)(C)NC(=O)[C@@H](N)Cc1c[nH]cn1)[C@@H](C)O)[C@@H](C)O)C(C)C)C(C)C)C(=O)N[C@@H](CCCCNC(=O)COCCOCCNC(=O)COCCOCCNC(=O)CC[C@H](NC(=O)CC[C@H](NC(=O)CC[C@H](NC(=O)CCCCCCCCCCCCCCCCC(=O)O)C(=O)O)C(=O)O)C(=O)O)C(=O)N[C@H](C(N)=O)[C@@H](C)O [Chem. 10, N^ε28-[2-[2-[2-[[2-[2-[2-[[(4S)-4-carboxy-4-[[(4S)-4-carboxy-4-[[(4S)-4-carboxy-4-(17-carboxyheptadecanoylamino)butanoyl]amino]butanoyl]amino]butanoyl]amino]ethoxy]ethoxy]acetyl]amino]ethoxy]ethoxy]acetyl]-[Aib2,Val10,Glu15,Ile27,Lys28]-Glucagon amide] (H-H[Aib]QGTFTSDVSKYLESRRAQDFVQWLIK([AEEA-AEEA-γGlu-γGlu-γGlu-C18 diacid])T-NH2)
